Values of other authors in patent US8389572B2, “Therapeutic delivery of carbon monoxide” (hemoCORM Limited, priority 2006, dated 2013).

Conditions: disclosed in WO 02/092075 and WO 2004/045598

Structure (SMILES): F[P-](F)(F)(F)(F)F.O=[C]=[Fe](=[C]=O)(=[C]=O)[CH]1C=CC=C1 [[CpFe(CO)3]PF6]
- precipitate during release of CO: produced a precipitate during release of CO
- solubility (solvent): soluble in dimethylsulphoxide (DMSO)
